{"source": "patent US20240335402A1", "about": "“BIODEGRADABLE ANTI-INFECTIVE FORMULATIONS” (New Mexico Tech University Research Park Corporation, priority 2023, published 2024)", "test_system": "colistin (polymyxin E, or PME) resistant bacterium S. maltophilia", "assay": "Spot test on lawn of colistin resistant bacterium", "format": "cell-based", "settings": "10 μL spotted, 37° C., 2 days"}
{"smiles": "O=C(O)CC[C@@H](C(=O)O)N(CC(=O)O)CC(=O)O", "note": "[GLDA, N,N-Dicarboxymethyl glutamic acid]", "values": [{"measurement": "activity / kill of S. maltophilia lawn", "value": "did not work as well as CTAC"}]}
